From ChEMBL document CHEMBL1146452, “Saponins from the flower buds of Buddleja officinalis” (J Nat Prod, 2004)
pIC50: −log10 of the molar value.

Tested on: HL-60
Assay: Cytotoxicity against human HL60 cells by MTT assay
Format: functional, cell-based

Compound | pIC50
C[C@@H]1O[C@@H](O[C@H]2[C@H](O)[C@@H](O)[C@H](O[C@H]3[C@@H](O)[C@@H](C)O[C@@H](O[C@H]4CC[C@@]5(C)[C@@H](CC[C@]6(C)[C@@H]5C=CC5=C7CC(C)(C)CC[C@]7(CO)[C@@H](O)C[C@]56C)[C@]4(C)CO)[C@@H]3O[C@@H]3O[C@H](CO)[C@@H](O)[C@H](O)[C@H]3O)O[C@@H]2CO)[C@H](O)[C@H](O)[C@H]1O [MIMENGOSIDE C] | 4.63
C[C@H]1O[C@@H](O[C@H]2CC[C@]3(C)C4=CC=C5[C@@H]6CC(C)(C)CC[C@]6(CO)[C@@H](O)C[C@@]5(C)[C@]4(C)CC[C@H]3[C@]2(C)CO)[C@H](O)[C@@H](O[C@@H]2O[C@H](CO)[C@@H](O[C@@H]3OC[C@@H](O)[C@H](O)[C@H]3O)[C@H](O)[C@H]2O)[C@H]1O [MIMENGOSIDE F] | 4.64
C[C@H]1O[C@@H](O[C@H]2CC[C@@]3(C)[C@@H](CC[C@]4(C)[C@@H]3C=CC3=C5CC(C)(C)CC[C@]5(CO)[C@@H](O)C[C@]34C)[C@]2(C)CO)[C@H](O)[C@@H](O[C@@H]2O[C@H](CO)[C@@H](O[C@@H]3OC[C@@H](O)[C@H](O)[C@H]3O)[C@H](O)[C@H]2O)[C@H]1O [MIMENGOSIDE D] | 4.57
C[C@@H]1O[C@@H](O[C@H]2[C@H](O)[C@@H](O)[C@H](O[C@H]3[C@@H](O)[C@@H](C)O[C@@H](O[C@H]4CC[C@]5(C)C6=CC=C7[C@@H]8CC(C)(C)CC[C@]8(CO)[C@@H](O)C[C@@]7(C)[C@]6(C)CC[C@H]5[C@]4(C)CO)[C@@H]3O[C@@H]3O[C@H](CO)[C@@H](O)[C@H](O)[C@H]3O)O[C@@H]2CO)[C@H](O)[C@H](O)[C@H]1O [MIMENGOSIDE E] | 4.77
